Measurements from patent publication US20250340946A1, “METHOD OF PROGNOSING AND TREATING GLIOMA” (Agency for Science, Technology and Research, priority 2022, published 2025).

Key:
[1] = system: LOC expression in mIDH1 (IDH1 R132H/WT) LN18 cells; assay: qPCR of LOC expression in mIDH1 cells; type: cell-based, human
Description: FIG. 6: LOC: DHX15 serves as a targetable vulnerability in wtIDH1 high-grade glioma. A) LOC expression in different IDH mutation status across different WHO grade gliomas based on RNA-seq data from CGGA. B) qPCR of LOC expression in wtIDH1 LN18 cells or mIDH1 clones. Those clones were generated by base editing. C) qPCR of LOC expression in wtIDH1 and mIDH1 LN18 cells treated with or without mIDH1 inhibitor AGI-5198. D) qPCR of LOC expression in wtIDH1 and mIDH1 LN18 cells with or without DMNT inhibitor 5-Azac treatment. E) Protein lysates from wtIDH1 and mIDH1 LN18 cells were analyzed for levels of phosphorylated and total p65 and p38 proteins by western blot. F) wtIDH1 and mIDH1 LN18 cells were transfected with empty vector (EV) or expression vectors of LOC or mutant version of LOC (LOC-M2). After 48 hours cells were harvested and endogenous DHX15 or p65 was immunoprecipitated with antibody against DHX15 or p65. IP samples were analyzed by subsequent immunoblot for the indicated proteins at indicated time points. G-H) Cell viability assay of wtIDH1 G) and mIDH1 LN18 cells H) treated with or without DHX inhibitor. I) Fluorescence imaging of wtIDH1 and mIDH1 GBM orthotopic xenograft models with or without DHX inhibitor treatment. J) Quantification of tumor signal intensity obtained from I). […]

[2] = system: GBM cells; assay: Cell viability, RNA helicase inhibitors alone or with TMZ (FIG. 9); type: cell-based; details: for synergy on cell viability: combination therapy with TMZ; for cell viability: single agent

Compound	LOC expression ([1]; IDH1 R132H/WT cells, mIDH1 inhibitor treatment, FIG. 6C)	synergy on cell viability [2]	cell viability [2]	IDH1 mutation induced hypermethylation phenotype (diminished LOC expression) ([1]; DNA methyltransferase inhibitor treatment, FIG. 6D)
Cc1ccccc1C(C(=O)NC1CCCCC1)N(C(=O)Cn1ccnc1C)c1cccc(F)c1 (stereo not drawn) [selective mutant IDH1^R132H inhibitor]	restored the LOC expression	–	–	–
COc1ccc([C@@]23Oc4cc(OC)cc(OC)c4[C@]2(O)[C@H](O)[C@H](C(=O)N(C)C)[C@H]3c2ccccc2)cc1 [Rocaglamide]	–	does not show synergistic inhibition of cell viability	inhibition of cell viability	–
RK-33	–	does not show synergistic inhibition of cell viability	inhibition of cell viability	–
Nc1ncn([C@@H]2O[C@H](CO)[C@@H](O)[C@H]2O)c(=O)n1 [5-AzaC, 5-Azacytidine]	–	–	–	abrogate this hypermethylation phenotype
